{"source": "patent US20120042398A1", "about": "“COMPOSITIONS FOR LABELING AND IDENTIFYING AUTOPHAGOSOMES AND METHODS FOR MAKING AND USING THEM” (SAN DIEGO STATE UNIVERSITY (SDSU) FOUNDATION, priority 2008, published 2012)", "key": {"[1]": {"test_system": "autophagic vesicles (AV) in fat body tissue", "assay": "Staining of fresh Drosophila larval fat body tissue (AV labeling)", "format": "cell-based", "settings": "10 μM dye, 10 min", "description": "Staining of Drosophila Tissues. To perform a rapid first-pass examination of the compounds ability to stain AV we examined fat body tissues from wandering 3rd instar Drosophila larvae. 1 mM DMSO stock solutions were prepared for each compound and stored at −20° C. Fat body tissue from wild type fly larvae were dissected from the surrounding cuticle and organs, and placed in 1 ml iced PBS solution. Tissues were immediately stained for 10 min, in a final 10 μM concentration for each dye. Samples were rinsed twice with 1×PBS, mounted with VECTASHIELD™ (Vector Laboratories, Inc, Burlingame, Calif.) and immediately imaged using a scanning confocal fluorescent microscope (Leica, FITC channel). As a positive control, fly tissues (3rd instar) were also stained with BODIPY-TexasRed-cadaverine (Invitrogen, red)."}, "[2]": {"test_system": "HL-1 cells", "assay": "High-throughput cadaverine plate-reader assay of autophagy (ALEXAFLUOR488-cadaverine fluorescence)", "format": "cell-based, Mouse", "settings": "FIG. 1", "description": "For 24 Well Plates: • Plate 75,000 cells per well • Wait for cells to achieve approximately 80% confluence (approximately 1 day) • Treat cells (3 h 30 min starvation, 3 mL of medium) • Rinse cells with PBS (1 ml) • Incubate cells with probe for 10 minutes at 37° C. • Wash cells four times with PBS (1 mL) • Lyse cells by incubating in 10 mM Tris-Cl pH 8 containing 0.1% Triton X-100 for 20 minutes (500 uL) • Measure fluorescence in plate reader • Add ethidium bromide to a final concentration of 0.2 mM and measure fluorescence (exc=530 nm; em=590 nm) • Normalize results to the number of cells (ethidium bromide reading)\nProbes: • ALEXAFLUOR488™ cadaverine (A30676, Invitrogen, Carlsbad, Calif.) • Final concentration 25 uM, exc=493 nm; em=516 nm. • BODIPY TR™ cadaverine (D6251, Invitrogen, Carlsbad, Calif.) • Final concentration 125 nM, exc=588 nm; em=616 nm."}, "[3]": {"test_system": "autophagic vesicles in Atg1-/- fat body tissue", "assay": "FITC-TG / LYSOTRACKER staining of Atg1-/- mutant fat body tissue", "format": "cell-based, Drosophila", "settings": "starvation and hormone-dependent induction", "description": "These studies indicates the FITC-dyes highlight a population of vesicles that are distinct from LYSOTRACKER™ and could be used to study the early in vivo formation, maturation and fusion events of AV within cells. To further confirm the specificity of the FITC-TG AV staining, fat body tissue was prepared from Atg1−/− larvae and compared with wild type controls. Signaling of the Atg1 protein kinase is essential for pathway induction and AV formation, see e.g., (21, 57). In Drosophila loss-of-function mutations in this gene result in late pupal lethality but have a minor impairment on early development, thus providing sufficient material for imaging studies. […] This staining pattern is consistent with lysosomes maturing from the endosomal pathway but AV failing to be formed under normal physiological conditions. FIG. 8 illustrates images of stained tissues from: Fed (left column images), fasted (middle column images) and hormone-induced (“3rd instar” right column images) autophagy profiles in wildtype (upper row images) and Atg1−/− mutant (lower row images) cells. Fat body tissue from larvae that were fed, fasted or undergoing hormone-induced autophagy were collected and stained with LYSOTRACKER™ (red) and the exemplary FITC-TG (green). […] While LYSOTRACKER™ puncta are detected (red) in these Atg1^−/− mutant tissues, the exemplary FITC-TG dye fails to stain autophagosomes or autolysosomes."}, "[4]": {"test_system": "mCherry-LC3 puncta (autophagosomes) in heart", "assay": "MDC labeling of cardiac tissue in mCherry-LC3 mice", "format": "in vivo", "settings": "MDC 1.5 mg/kg i.p. 1 hr before sacrifice, heart sections", "description": "To examine its labeling profile in cardiac tissues, mCherry-LC3 mice were injected with MDC (1.5 mg/kg i.p.) 1 hr before being sacrificed, e.g., see Iwai-Kanai (2008) supra, Yitzhaki (2009) Basic Res. Cardiol. 104:157-167. Hearts were collected and frozen tissues sections prepared for imaging. Under conditions where autophagy is activated and mCherry-LC3 puncta formed, MDC-labeled structures were similarly up regulated, see FIG. 4, and see e.g. Iwai-Kanai (2008) supra. MDC labeled a subset of mCherry-LC3-positive structures, presumably fused autolysosome vesicles.\nFIG. 4 illustrates three images, including mCherry and MDC labeling of vesicles. mCherry-LC3 expressing mice were treated with rapamycin and hearts prepared for fluorescent imaging. […] The right image of FIG. 4 is a merge of the mCherry-LC3 and MDC images."}, "[5]": {"assay": "Fluorophore properties (pKa, pH stability, photostability, storage stability)", "format": "physicochemical", "settings": "for photostability / photobleaching: normal fluorescence exposure"}, "[6]": {"test_system": "autophagic vesicles (AV)", "assay": "MDC staining of AV in cell or tissue preparations", "format": "cell-based", "text": "Initial synthesis of autophagic specific dyes of this invention was based on MDC. […] In alternative embodiments, dyes used in compositions of this invention are vesicle selective, have multiple fluorescent excitation/emission spectra and can be used for several imaging applications. Thus, the new dyes of this invention will greatly benefit autophagy research."}, "[7]": {"settings": "cited from earlier work"}, "[8]": {"test_system": "autophagosomes in heart tissue", "assay": "Heart perfusion with BODIPY-TR-cadaverine, dye incorporation into autophagosomes read in plate reader", "settings": "perfused hearts, FIG. 2", "description": "1) Mince 1-5 mm^3 tissue sample in 1-2 mL homogenization buffer in 35 mm dish 2) Polytron at ½ speed, 5 sec, on ice in 15 mL round bottom polypropylene tube 3) Spin out nuclei and heavy membranes @ 1000 g, 5 min, 4° C. in 15 mL Falcon tube 4) Move post-nuclear supernatant into 1.5 mL Eppendorf tube 5) Add MDC (or Cadaverine 488) to final concentration of 25 μM 6) Incubate on ice 10 min protected from light 7) Spin sample 20,000×g, 20 min, 4° C. 8) Aspirate supernatant and rinse off pellet with 1 mL cold resuspension buffer 2×'s 9) Resuspend pellet in 350 μL resuspension buffer until mixed evenly 10) Add 100 μL per well in triplicate to black 96-well plate 11) Read on Fluorescence plate reader @ excitation/emission 495 nm/519 nm 12) Use remaining sample to run Bradford assay to quantify protein concentration.\nThe hearts were perfused with BODIPY-TR™-cadaverine followed by washout, then homogenized and fluorescence read in plate reader. […] FIG. 2 right image is a graph illustrating quantitation of dye incorporation into autophagosomes, with the left column graphically quantitating the upper left image's fluorescence and the right column graphically quantitating the lower left image's (the Tat-Atg5(K130R)-inhibited) fluorescence."}}, "data": [{"smiles": "Cl.NCCCCCNC(=O)COc1ccc(C2=[N+]3C(=Cc4ccc(-c5cccs5)n4[B-]3(F)F)C=C2)cc1", "note": "[BODIPY-cadaverine, 5-(((4-(4,4-difluoro-5-(2-thienyl)-4-bora-3a,4a-diaza-s-indacene-3-yl)phenoxy)acetyl)amino)pentylamine, hydrochloride]", "values": [{"measurement": "staining of intracellular vesicles / cytoplasmic puncta in fresh tissue", "setting": "[1]", "value": "robust staining pattern"}]}, {"smiles": "CO/C1=C\\C(C)=C\\[C@@H](C)[C@@H](O)[C@@H](C)C/C(C)=C/C=C/[C@H](OC)[C@@H]([C@@H](C)[C@@H](O)[C@H](C)[C@@]2(O)C[C@@H](O)[C@H](C)[C@@H](C(C)C)O2)OC1=O", "note": "[Bafilomycin A1]", "values": [{"measurement": "effect on starvation-increased autophagy (relative ALEXAFLUOR488-cadaverine fluorescence normalized to cell number)", "setting": "[2]", "value": "partially blocked"}]}, {"smiles": "CN(C)CCNC(=O)CCc1ccc2n1[B-](F)(F)[N+]1=C(c3ccc[nH]3)C=CC1=C2", "note": "[LYSOTRACKER™]", "values": [{"measurement": "vesicle staining in Atg1-/- flies", "setting": "[3]", "value": "some LYSOTRACKER™ positive staining"}]}, {"smiles": "CN(C)c1cccc2c(S(=O)(=O)NCCCCCN)cccc12", "note": "[MDC, monodansylcadaverine]", "values": [{"measurement": "co-localization of MDC labeling with mCherry-LC3 puncta", "setting": "[4]", "value": "excellent co-localization"}, {"measurement": "stability during storage", "setting": "[5]", "value": "stability issues during storage"}, {"measurement": "photostability / photobleaching", "setting": "[5]", "value": "significant photobleaching"}, {"measurement": "usability on fixed samples", "setting": "[6]", "value": "cannot be used on fixed samples"}]}, {"smiles": "O=C1OC2(c3cc(F)c(O)cc3Oc3cc(O)c(F)cc32)c2ccccc21", "note": "[Oregon Green 488, Difluoro-fluorescein]", "values": [{"measurement": "photostability / photobleaching", "setting": "[5]", "value": "excellent photostability"}, {"measurement": "pKa", "setting": "[7]", "value": 4.7}]}, {"smiles": "Nc1ccc(S(=O)(=O)Nc2ccnn2-c2ccccc2)cc1", "note": "[Sulfaphenazole]", "values": [{"measurement": "effect on autophagy (BODIPY-TR-cadaverine incorporation into autophagosomes)", "setting": "[8]", "value": "potent inducer of autophagy"}]}, {"smiles": "CCN(CC)CCCC(C)Nc1ccnc2cc(Cl)ccc12", "note": "(centres unmarked) [chloroquine]", "values": [{"measurement": "effect on starvation-increased autophagy (relative ALEXAFLUOR488-cadaverine fluorescence normalized to cell number)", "setting": "[2]", "value": "partially blocked"}]}]}
